Source: EPA's ToxValDB 9.5

Columns and labels:
Mus musculus = conditions: oral
Rattus norvegicus = conditions: oral, gavage
[1] = developmental, duration: 20 days, gavage, F, ICR, Developmental: Decreases in pup body weight / delays in eye opening, vaginal opening, and first estrous / decreases in ovarian follicles…
[2] = developmental, duration: 15 days, F, Body Weight: 12% decrease in maternal body weight + Developmental: 12-13% decrease in fetal body weights
[3] = developmental, duration: 15 days, F, Body Weight: 31% decrease in maternal body weight gain + Developmental: Decreases in fetal body weight (9%) and delays in hindlimb …
[4] = reproduction developmental, duration: 70 days, Sprague-Dawley, Body Weight: Medullary/papillary tubular and ductal hyperplasia in P0 and F1
[5] = subchronic, duration: 90 days, M, Sprague-Dawley, Hematological: Decreased hemoglobin (4.9%) and hematocrit (5.2%)
[6] = subchronic, duration: 90 days, Sprague-Dawley, Gastrointestinal: Necrosis of individual squamous cells in forestomach and hyperplasia and hyperkeratosis of limiting ridge + Renal: …
[7] = developmental, duration: 13 days, gavage, F, CD1, Developmental: 12.5% decrease in birth weight and delayed eye opening at ?350 mg/kg/day / increased pup mortality (PND 0-3) and decreased …
[8] = developmental, duration: 13 days, gavage, F, CD1, Developmental: Increase in stillborn pups and 12.5% decrease in birth weight
[9] = chronic, duration: 93 days, F, Endocrine: Thyroid follicular epithelial hypertrophy
[10] = chronic, duration: 93 days, M/F, Hematological: Decreased RBC, hemoglobin, and hematocrit / increased reticulocytes / erythroid hypertrophy in bone marrow and …
[11] = chronic, duration: 93 days, M/F, Respiratory: Degeneration/atrophy of nasal olfactory epithelium at ?100 mg/kg/day and respiratory metaplasia at 500 mg/kg/day
[12] = chronic, duration: 93 days, M, Body Weight: 19% decrease in body weight gain
[13] = developmental, duration: 20 days, F, Body Weight: Decreased maternal weight gain (19%) + Developmental: Decreased fetal weight (10%)
[14] = developmental, duration: 126 days, M/F, Developmental: Decreased pup body weight (17-18%) during lactation period
[15] = reproduction developmental, duration: 126 days, M, Body Weight: Decreased weight gain (12%) / decreased maternal weight gain during GDs 0-7 and increased maternal weight gain during …
[16] = subchronic, duration: 44 days, F, Immunotoxicological: Thymic atrophy in 3/9 females
[17] = subchronic, duration: 44 days, M, Hematological: Decreased hemoglobin levels / increased reticulocytes at 315 mg/kg/day
[18] = subchronic, duration: 90 days, M/F, Sprague-Dawley, Hematological: Slight decreases in RBC, hemoglobin, and hematocrit and increases in reticulocytes

O=S(=O)(O)C(F)(F)C(F)(F)C(F)(F)C(F)(F)F [Perfluorobutanesulfonic acid]
NOAEL (Mus musculus; developmental, duration: 20 days, gavage, F, ICR): 500 mg/kg-day | LOAEL (Mus musculus; [1]): 200 mg/kg-day | NOAEL (Mus musculus; [1]): 50 mg/kg-day | NOAEL (Mus musculus; subchronic, duration: 6 weeks, diet, M, Hepatic: Decreased plasma triglyceride levels): 30 mg/kg-day | LOAEL (Rattus norvegicus; [2]): 2000 mg/kg-day | NOAEL (Rattus norvegicus; [2]): 1000 mg/kg-day | LOAEL (Rattus norvegicus; [3]): 1000 mg/kg-day | NOAEL (Rattus norvegicus; [3]): 300 mg/kg-day | NOAEL (Rattus norvegicus; reproduction developmental, duration: 70 days, Sprague-Dawley, Body Weight: Increased liver weight in males at ?300 mg/kg/day): 1000 mg/kg-day | LOAEL (Rattus norvegicus; [4]): 300 mg/kg-day | NOAEL (Rattus norvegicus; [4]): 100 mg/kg-day | NOAEL (Rattus norvegicus; short-term, duration: 28 days, Sprague-Dawley, Hepatic: Increased absolute and relative liver weight at 900 mg/kg/day + Immunotoxicological: No histological alterations + Neurological: No…): 900 mg/kg-day | LOAEL (Rattus norvegicus; [5]): 200 mg/kg-day | NOAEL (Rattus norvegicus; [5]): 60 mg/kg-day | NOAEL (Rattus norvegicus; subchronic, duration: 90 days, Sprague-Dawley): 600 mg/kg-day | LOAEL (Rattus norvegicus; [6]): 600 mg/kg-day | NOAEL (Rattus norvegicus; [6]): 200 mg/kg-day

O=C(O)C(F)(F)C(F)(F)C(F)(F)C(F)(F)C(F)(F)F [Perfluorohexanoic acid]
LOAEL (Mus musculus; [7]): 350 mg/kg-day | NOAEL (Mus musculus; [7]): 100 mg/kg-day | LOAEL (Mus musculus; [8]): 175 mg/kg-day | NOAEL (Mus musculus; [8]): 35 mg/kg-day | LOAEL (Rattus norvegicus; acute, duration: 1 days, F, Sprague-Dawley, Death: 1/4 died at […] / 3/3 died at 5,000 mg/kg/day): 1750 mg/kg-day | LOAEL (Rattus norvegicus; acute, duration: 1 days, F, Sprague-Dawley, Neurological: Abnormal gait, salivation, ataxia, lethargy): 175 mg/kg-day | LOAEL (Rattus norvegicus; chronic, duration: 104 weeks, F, Sprague-Dawley, Death: 36, 43, 33, and 22% survival rate in females at 0, 5, 30, and 200 mg/kg/day, respectivel): 200 mg/kg-day | LOAEL (Rattus norvegicus; chronic, duration: 104 weeks, F, Sprague-Dawley, Hematological: 8.1% reduction in mean RBC count and 5.2% reduction in hemoglobin at 51 weeks / 23.6 and 53.6% increase in reticulocyte …): 200 mg/kg-day | NOAEL (Rattus norvegicus; chronic, duration: 104 weeks, M, Sprague-Dawley, Hematological: 8.1% reduction in mean RBC count and 5.2% reduction in hemoglobin at 51 weeks / 23.6 and 53.6% increase in reticulocyte …): 100 mg/kg-day | LOAEL (Rattus norvegicus; [9]): 500 mg/kg-day | NOAEL (Rattus norvegicus; [9]): 100 mg/kg-day | LOAEL (Rattus norvegicus; [10]): 500 mg/kg-day | NOAEL (Rattus norvegicus; [10]): 100 mg/kg-day | NOAEL (Rattus norvegicus; chronic, duration: 93 days, M/F, Hepatic: Hepatocellular hypertrophy in males at ?100 mg/kg/day and females at 500 mg/kg/day): 500 mg/kg-day | LOAEL (Rattus norvegicus; [11]): 100 mg/kg-day | NOAEL (Rattus norvegicus; [11]): 20 mg/kg-day | LOAEL (Rattus norvegicus; [12]): 500 mg/kg-day | NOAEL (Rattus norvegicus; [12]): 200 mg/kg-day | LOAEL (Rattus norvegicus; chronic, duration: 126 days, F): 500 mg/kg-day | NOAEL (Rattus norvegicus; chronic, duration: 126 days, F): 100 mg/kg-day | NOAEL (Rattus norvegicus; chronic, duration: 126 days, M/F): 500 mg/kg-day | LOAEL (Rattus norvegicus; [13]): 500 mg/kg-day | NOAEL (Rattus norvegicus; [13]): 100 mg/kg-day | LOAEL (Rattus norvegicus; [14]): 500 mg/kg-day | NOAEL (Rattus norvegicus; [14]): 100 mg/kg-day | NOAEL (Rattus norvegicus; reproduction developmental, duration: 44 days, M/F, Gastrointestinal: Stomach erosions/ulceration in dying or sacrificed in extremis rats administered 450 mg/kg/day for 4 days + Hepatic: …): 315 mg/kg-day | LOAEL (Rattus norvegicus; [15]): 100 mg/kg-day | NOAEL (Rattus norvegicus; [15]): 20 mg/kg-day | NOAEL (Rattus norvegicus; subchronic, duration: 44 days, F): 315 mg/kg-day | LOAEL (Rattus norvegicus; [16]): 315 mg/kg-day | NOAEL (Rattus norvegicus; [16]): 150 mg/kg-day | NOAEL (Rattus norvegicus; subchronic, duration: 44 days, M): 315 mg/kg-day | LOAEL (Rattus norvegicus; subchronic, duration: 44 days, M/F, Death: 8/30 deaths (includes rats sacrificed in extremis) during first 4 days of exposure): 450 mg/kg-day | LOAEL (Rattus norvegicus; [17]): 150 mg/kg-day | NOAEL (Rattus norvegicus; [17]): 50 mg/kg-day | LOAEL (Rattus norvegicus; [18]): 200 mg/kg-day | NOAEL (Rattus norvegicus; [18]): 50 mg/kg-day | NOAEL (Rattus norvegicus; subchronic, duration: 90 days, M/F, Sprague-Dawley, Hepatic: Centrilobular hepatocellular hypertrophy at 200 mg/kg/day): 200 mg/kg-day
